Tests used:
Format in all cases: cell-based, canine
MDCK cells [1] = experiment: cytotoxicity assay (CCK-8 cell viability); conditions: 4 h treatment
Procedure: (§1) Madin-Darby Canine Kidney (MDCK) cells were seeded in 96-well plates (1 × 10^5 cells/well) and cultured for 24 h at 37 °C in complete DMEM (10% FBS, 1% penicillin–streptomycin) under 5% CO2. Cells were treated for 4 h with 100 µL of complete DMEM media (pH 7.4) containing crystalline Cur, amorphous Cur, binary Cur/P188 ASD (1:8, w/w), or ternary Cur/P188/TW80 or Cur/P188/SLS ASDs (1:8:1, w/w/w), at Cur-equivalent concentrations of 0 (vehicle), 2, 10, 25, 50, 100, and 200 μg/mL. After treatment, cells were washed three times with PBS (pH 7.4). Cell viability was assessed using a CCK-8 assay: 100 µL of serum-free DMEM and 10 µL of CCK-8 reagent were added to each well, followed by incubation for 2 h. Absorbance was measured at 450 nm using a Multiskan GO microplate reader (Thermo Fisher Scientific, Vantaa, Finland).
(§2) Cell viability was calculated according to the following equation:Viability (%) = [(As − Aᵦ)/(Ac − Aᵦ)] × 100% where
(§3) • As is the absorbance of experimental wells (cells + treatment + CCK-8); • Ac is the absorbance of control wells (cells + medium + CCK-8, no drug); • Aᵦ is the absorbance of blank wells (medium + CCK-8, no cells, no drug).
(§4) All experiments were performed in quintuplicate (n = 5).

[2] = cytotoxicity assay (CCK-8 cell viability); conditions: dog, MDCK cells, pH 7.4, MDCK cells, 4 h treatment, read-out: IC50 (cytotoxicity, Cur-equivalent)
Procedure: as §1, §2, §3, §4

MDCK cells [3] = experiment: cellular uptake study (LC-MS/MS of intracellular Cur); conditions: 10 min incubation, 5 μg Cur-equivalent (10 μg/mL)
Procedure: MDCK cells were seeded in 24-well plates and cultured following the procedures described in Cytotoxicity Assay section. The cells were treated with 500 µL of complete DMEM medium (pH 7.4) containing crystalline Cur, amorphous Cur, binary Cur/P188 ASD (1:8, w/w), or ternary Cur/P188/TW80 or Cur/P188/SLS ASDs (1:8:1, w/w/w), at Cur-equivalent dose of 5 µg per well. After 10 min of incubation, the treatment was terminated by immediate removal of the medium. The cells were then washed three times with ice-cold PBS, lysed with 200 µL of 0.1% SDS (assisted by sonication), and dissolved in methanol at a 1:2 (v/v) ratio. The total intracellular Cur content was quantified using LC-MS/MS. All experiments were performed in quadruplicate (n = 4).
Cur quantification in cellular and rat plasma samples was carried out using a SCIEX QTRAP® 5500 LC-MS/MS system coupled with a SCIEX ExionLC^TM AC system (AB SCIEX, Framingham, MA, USA).
Separation was achieved on an Acquity UPLC® BEH C18 column (100 × 2.1 mm, 1.7 μm; Waters) maintained at 40 °C. […]
Mass spectrometric detection was performed using an IonDrive^TM Turbo V ion (SCIEX, Framingham, MA, USA) source operating in negative electrospray ionization (ESI) mode. Quantification was conducted via multiple reaction monitoring (MRM) at m/z 367.1→133.9 for Cur, and m/z 294.1→250.0 for diclofenac sodium (IS). […]

- cellular uptake (% of the administered dose) (MDCK cells [3]): 0.2%
SMILES: COc1cc(/C=C/C(=O)CC(=O)/C=C/c2ccc(O)c(OC)c2)ccc1O [Crystalline Cur, Curcumin]
- concentrations with negligible toxicity (MDCK cells [1]): ≤ 25000 ng/mL
- IC50 at 4 h [2]: 82.2 µg/mL
